Test results as given in PubChem BioAssay (NCI).
“And” between values parts separate entries of the source, which are not always exact repeats. Identical values can stand only once.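 Grown in 96-well plates, cells were treated for 48 hours with each compound at five concentrations. Insufficient inhibition: endpoint recorded as highest concentration tested. Here, GI50 denotes the concentration required for 50% inhibition of growth. TGI is the concentration that stops growth completely.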

Columns and labels:
Experiment in all cases: inhibition of tumour cell growth, NCI panel, 48 h
SK-MEL-28 melanoma = system: SK-MEL-28 melanoma
TK-10 renal = system: TK-10 renal
CAKI-1 renal = system: CAKI-1 renal
CCRF-CEM leukemia = system: CCRF-CEM leukemia
K-562 leukemia = system: K-562 leukemia
UO-31 renal = system: UO-31 renal
HCC-2998 colon = system: HCC-2998 colon
HL-60(TB) leukemia = system: HL-60(TB) leukemia
HCT-15 colon = system: HCT-15 colon
SK-MEL-5 melanoma = system: SK-MEL-5 melanoma

SMILES | TGI (SK-MEL-28 melanoma) | TGI (TK-10 renal) | TGI (CAKI-1 renal) | TGI (CCRF-CEM leukemia) [µM] | TGI (K-562 leukemia) | TGI (UO-31 renal) | TGI (HCC-2998 colon) | TGI (HL-60(TB) leukemia) [µM] | TGI (HCT-15 colon) | TGI (SK-MEL-5 melanoma) | GI50 (SK-MEL-28 melanoma) | GI50 (TK-10 renal) | GI50 (CAKI-1 renal) | GI50 (CCRF-CEM leukemia) | GI50 (K-562 leukemia) | GI50 (UO-31 renal) | GI50 (HCC-2998 colon) | GI50 (HL-60(TB) leukemia) | GI50 (HCT-15 colon) | GI50 (SK-MEL-5 melanoma)
CN(C)c1cc2ccccc2oc1=O | > 100 µM | > 100 µM | > 100 µM | > 100 | > 100 µM | > 100 µM | > 100 µM | > 100 | > 100 µM | > 100 µM | – | – | – | – | – | – | – | – | – | –
CC1=C([Se]CC(OC(=O)CC[Se]c2ccccc2)C(=O)NC(C)(C)C)C(=O)c2ccccc2C1=O (stereo unspecified) | 3.55 µM | 3.62 µM | 4.58 µM | 4.1 | 3.08 µM | 2.43 µM | 3.2 µM | 2.92 | 5.86 µM | 3.27 µM | 2080 nM | 1990 nM | 2370 nM | 628 nM | 729 nM | 1170 nM | 1760 nM | 1070 nM | 2470 nM | 1820 nM
COc1ccc(C2=Nn3c(nnc3-c3cc(Cl)cc(Cl)c3Cl)SC2)cc1 | > 100 µM | > 53.9 µM | > 49.7 µM | > 100 | > 31.6 µM | 29.2 µM | 5.41 µM | 2.03 | > 100 µM | – | – | 2260 nM | 562 nM | 519 nM | 440 nM | 379 nM | 1210 nM | 461 nM | 520 nM | 273 nM
CC[O-].CC[O-].O=C([CH-]C(=O)c1ccccc1)CCCCCCCCC(=O)[CH-]C(=O)c1ccccc1.[Ti+4] | > 100 µM | > 100 µM | > 100 µM | > 100 | > 100 µM | – | > 100 µM | > 100 | > 100 µM | > 100 µM | > 100000 nM | > 100000 nM | > 100000 nM | 41800 nM | > 100000 nM | – | > 100000 nM | > 100000 nM | > 100000 nM | > 100000 nM
COC(=O)c1sc(C(=O)OC)c2c1CS(=O)C2 | > 100 µM | > 100 µM | > 100 µM | > 100 | > 100 µM | > 100 µM | > 100 µM | > 100 | > 100 µM | > 100 µM | – | – | – | – | – | – | – | – | – | –
CN(C)CCNC(=O)Cn1ccc(=O)c2cc([N+](=O)[O-])ccc21 | > 100 µM | > 100 µM | > 100 µM | > 100 | > 100 µM | > 100 µM | > 100 µM | > 100 | > 100 µM | > 100 µM | – | – | – | – | – | – | – | – | – | –
CC1=C(C(=O)Nc2ccccc2C)C(c2ccc(Cl)cc2)C(C(=O)Nc2ccccc2C)=C(C)N1 | > 100 µM | > 100 µM | > 100 µM | > 100 | > 100 µM | > 100 µM | > 100 µM | > 100 | > 100 µM | > 100 µM | – | – | – | – | – | – | – | – | – | –
CC(=O)c1c(O)c(C)c(O)c(Cc2c(O)c3c(c(C(=O)/C=C/c4ccccc4)c2O)OC(C)(C)C=C3)c1O | 14.9 µM | > 100 µM | 9.07 µM | > 100 | 14.7 µM | 8.19 µM | 11.1 µM | 26.2 | 14.3 µM | 5.75 µM | – | – | – | – | – | – | – | – | – | –
Cn1ncc(-c2ccc3c(=O)[nH]nc(CN)c3c2)c1-c1c(F)c(Cl)cc(OC2CC2)c1C#N | 27.8 µM and 27.2 µM | 31.8 µM and 27.2 µM | 24.1 µM and 23.6 µM | > 100 | 92.1 µM and > 100 µM | 24.9 µM and 22.1 µM | 28 µM and 28.3 µM | > 100 | 30 µM and 28.9 µM | 24.4 µM and 27.5 µM | 14300 nM and 13700 nM | 16200 nM and 13700 nM | 11600 nM and 11200 nM | 22300 nM and 33400 nM | 14500 nM and 14800 nM | 12400 nM and 10300 nM | 14200 nM and 14500 nM | 20600 nM and 23100 nM | 14700 nM and 14300 nM | 12000 nM and 14300 nM
Cc1c2cnccc2c(C)c2c1c1cc(C#N)ccc1n2C | 0.737 µM | 1.62 µM | 1.34 µM | 2.83 | 1.33 µM | 0.869 µM | 1.55 µM | 1.77 | 0.85 µM | 0.591 µM | 285 nM | 266 nM | 92.9 nM | 249 nM | 247 nM | 137 nM | 293 nM | 401 nM | 96.6 nM | 224 nM
CN1N=CSC12C(=O)N(c1ccccc1)C(=O)N2c1ccccc1 (stereo unspecified) | > 100 µM | > 100 µM | > 100 µM | > 100 | > 100 µM | > 100 µM | > 100 µM | > 100 | > 100 µM | > 100 µM | – | – | – | – | – | – | – | – | – | –
CCc1c(C#N)c(=O)[nH]c(=O)n1CCN1CCN(C(=O)NCCCCCCNC(=O)N2CCN(CCn3c(CC)c(C#N)c(=O)[nH]c3=O)CC2)CC1 | – | > 100 µM | > 100 µM | > 100 | > 100 µM | – | > 100 µM | > 100 | > 100 µM | > 100 µM | – | – | – | – | – | – | – | – | – | –
Cc1ccc2cnc(N)c(C#Cc3cc(C(=O)Nc4ccc(CN5CCN(C)CC5)c(C(F)(F)F)c4)cnc3C)c2c1 | 1.36 µM | 1.48 µM | 1.1 µM | 2.85 | 1.26 µM | 1.3 µM | 8.46 µM | 6.58 | 1.17 µM | 2.49 µM | 609 nM | 731 nM | 476 nM | 917 nM | 5 nM | 621 nM | 1590 nM | 1730 nM | 385 nM | 1080 nM
N#CC(N)=Nc1ccccc1 | > 100 µM | > 100 µM | > 100 µM | > 100 | > 100 µM | > 100 µM | > 100 µM | > 100 | > 100 µM | > 100 µM | – | – | – | – | – | – | – | – | – | –
Cc1c(OC(C)C(=O)O)ccc2c(-c3ccccc3)cc(=O)oc12 (stereo unspecified) | > 100 µM | > 100 µM | > 100 µM | > 100 | > 100 µM | > 100 µM | > 100 µM | > 100 | – | > 100 µM | – | – | – | – | – | – | – | – | – | –
O=C1C2C3C=C4c5ccccc5N(c5ccccc5)C4(C2C(=O)N1c1ccccc1)C1C(=O)N(c2ccccc2)C(=O)C31 (stereo unspecified) | > 100 µM | > 100 µM | > 100 µM | > 100 | > 100 µM | > 100 µM | > 100 µM | > 100 | > 100 µM | – | – | – | – | – | – | – | – | – | – | –
CNC(=S)Nc1ccc(OC)c2ccccc12 | > 10 µM | > 10 µM | > 10 µM | > 10 | > 10 µM | – | > 10 µM | > 10 | > 10 µM | > 10 µM | – | – | – | – | – | – | – | – | – | –
